Here are results for 2 compounds from patent publication US9326517B2, “Synergistic combination of a chlorotoluron compound and IPBC for dry film protection” (Dow Global Technologies LLC, priority 2013, dated 2016).

For data set [1] the following is noted: cited from earlier work.
The subject of data set [2] is Chlorella sp. ATCC 7516. Description: Algal efficacy testing of dry paint films (modified ASTM 5589, 6-well plates). In kind it is cell-based. The settings on record: 3 weeks; for Total conc: total biocide concentration in paint used as minimum inhibitory concentration for SI, pass level ≧75% inhibition. The procedure:
Slurries containing 33% antimicrobial active ingredient (chlorotoluron) were post added to a white, acrylic/silicone based outdoor paint free of biocides to give a total active ingredient concentration of 10000 and 1000 ppm respectively. ROCIMA™ 250 (40% IPBC) was post added to a white, acrylic/silicone based outdoor paint free of biocides to give a total active ingredient concentration of 10000 and 1000 ppm respectively. These paints were then diluted with an antimicrobial free acrylic/silicone based paint and mixed to prepare targeted concentrations of antimicrobial compounds for the testing. The total biocides concentrations tested were 125, 250, 500, 1000, 2000 and 5000 ppm. After biocides addition or dilution, the paints were mixed 90 seconds with the horse power shaker (AXEL 75M3372/Agitateur SO-10MI) until uniformity was achieved. Paints containing different antimicrobial compounds at the same levels were mixed together in order to obtain the desired ratio of antimicrobial compounds. After one day, the paints were applied to Schleicher & Schuell filter paper at 280 μm wet film thickness and dried for 3 days at room temperature avoiding direct exposure to sunlight. Square discs (1.6 cm×1.6 cm) were cut out from each panel and were used as the substrate for algal efficacy tests. This sample size allowed for an agar border when the sample disc was placed into the well of the test plate.
Algal efficacy was tested according to modified ASTM 5589 which is a standard accelerated test method for determining resistance of various coatings (including paints) to algal defacement. To accommodate for high-throughput screening, this method was scaled down from petri dishes to 6-well plates. Bold Modified Basal Freshwater Nutrient Solution was used as growth medium. A single coated filter paper coupon was placed with a pair of sterile forceps at the center of the agar plug (on top) with the painted surface facing upwards. Algal inoculum was prepared by mixing equal concentrations (1×10^6 cfu/ml) and equal volumes of exponentially growing algae cultures.
Each well that contains a tested coupon was inoculated with 1750 μl of algal suspensions (1×10^6 cfu/ml) making sure that the whole surface (paint film as well as the agar surrounding it) was evenly covered. The plates were incubated at room temp (21° C.-25° C.) with cyclic exposure to light and dark phases, for a period of three weeks. The total area inhibited was evaluated at the end of each week according to percent area covered in 5% increments.
At the end of the three week incubation period, the samples were scored for percent inhibition regarding color intensity compared to the blank sample.
The Synergy Index calculation was performed as follows.
The SI is calculated based on F. C. Kull et. […]

In general, inhibition refers to the relative decrease from the control value, in per cent. As to `Cc1ccc(NC(=O)N(C)C)cc1Cl` [Chlorotoluron, N′-(3-chloro-4-methylphenyl)-N,N-dimethylurea], the solubility in water entry in data set [1] is recorded as “relatively low”. In data set [2], the Total conc worked out at 1000 ppm. In addition, the inhibition at 1000 ppm in data set [2] (504 h, total conc 1000 ppm in paint) came to 100%.

For the compound `CCCCNC(=O)OCC#CI` [IPBC, 3-Iodo-2-propynyl butylcarbamate], in data set [2], the Total conc is 2000 ppm. Besides, the inhibition at 2000 ppm in data set [2] (504 h, total conc 2000 ppm in paint) is 70%.
